From patent US12655458B2, “Methods for cyclization of (poly)peptides comprising nγ-hydroxy- or Nγ-amino-L-asparagine” (priority 2021, dated 2026)
Entries after “also recorded” stand apart in the source; their conditions may differ. Where two headings read alike, the source gives them in different places. Starred links: 1 amine or outer side, 2 acyl side, 3 side chain; linkers in the order of their positions; H or OH if unused. Positions of bridges follow the written chain, without caps; N, C: chain ends. Non-standard residues stand in square brackets, D forms with d. Residues, ends and D or L forms follow the SMILES beside them. No end group written: not given here. *: point of attachment. N(NH2) = N-gamma-amino-L-asparagine, O=C(C[C@H](N[*:1])C(=O)[*:2])NN[*:3]; N(OH) = N-hydroxy-L-asparagine, O=C(C[C@H](N[*:1])C(=O)[*:2])NO; NHOH = ON*

Assays:
[1] = enzyme bond, 37.0 °C
[2] = Stability in human serum by HPLC analysis; type: in vitro ADME; settings: 37° C.
Protocol: Peptides were mixed with human serum to a final concentration of 100 μM and incubated at 37° C. Aliquots of the sample were taken out at different time points and 10% TFA was added to quench all protease activities, followed by addition of 10% of DMSO. The solution mixture was centrifuged (11,000 g, 5 min, 4° C.) and the supernatant was analysed by RP-HPLC (15% buffer B-65% buffer B in 25 min) and ESI-MS. The quantity of the remaining peptides was determined by comparing their HPLC peak area with the initial peak area.

MMP2 = biological target: T1, MMP2 (Homo sapiens, UniProt P08253); test: MMPs inhibition assay (FRET substrate), MMP2; type: biochemical
T1 construct: purchased Sigma-Aldrich
T1 sequence (P08253 110-660): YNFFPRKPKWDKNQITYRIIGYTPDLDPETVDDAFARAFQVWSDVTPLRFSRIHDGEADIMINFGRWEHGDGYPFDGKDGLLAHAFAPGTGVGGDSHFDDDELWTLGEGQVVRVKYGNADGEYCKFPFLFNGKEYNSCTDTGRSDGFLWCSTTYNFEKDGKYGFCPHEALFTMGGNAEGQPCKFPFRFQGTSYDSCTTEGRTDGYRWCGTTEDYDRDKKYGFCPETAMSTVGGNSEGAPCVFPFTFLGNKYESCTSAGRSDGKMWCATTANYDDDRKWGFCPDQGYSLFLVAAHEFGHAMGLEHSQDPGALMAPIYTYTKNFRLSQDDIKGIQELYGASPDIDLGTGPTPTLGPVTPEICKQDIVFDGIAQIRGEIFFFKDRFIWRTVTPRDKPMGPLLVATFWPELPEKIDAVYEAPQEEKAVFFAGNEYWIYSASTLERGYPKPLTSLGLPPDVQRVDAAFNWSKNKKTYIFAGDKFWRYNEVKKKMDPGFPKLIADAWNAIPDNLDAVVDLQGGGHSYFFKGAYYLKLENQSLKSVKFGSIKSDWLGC
Protocol: The inhibitory activity of the peptides was determined by measuring the MMPs' protease activity towards a FRET substrate. 0.8 nM MMP2 or MMP9 (Sigma-Aldrich), 10 μM substrate (FAM-Lys-Pro-Leu-Gly-Leu-Lys(Dabcyl)-Ala-Arg-NH2, λex 490 nm; λem 520 nm) and various concentrations of the peptides (0.0001 μM-10 μM or 0.001 μM-100 μM) were used. The reactions were performed in 50 mM Tris-HCl buffer (pH 7.5) containing 150 mM NaCl, 10 mM CaCl2, 0.05% Brij35, at 37° C. MMP2 was pre-incubated with the peptide inhibitors for 10 min before adding the substrate. All the numbers were input into GraphPad Prism (GraphPad Software, San Diego) for IC50 calculation.

butelase-1 [3] = test: Kinetics of peptide cyclization by butelase-1; type: biochemical, Clitoria ternatea; settings: for Kcat / Km: cyclization by butelase-1, 37° C., PBS pH 6.5
butelase-1, sequence (as listed by the source): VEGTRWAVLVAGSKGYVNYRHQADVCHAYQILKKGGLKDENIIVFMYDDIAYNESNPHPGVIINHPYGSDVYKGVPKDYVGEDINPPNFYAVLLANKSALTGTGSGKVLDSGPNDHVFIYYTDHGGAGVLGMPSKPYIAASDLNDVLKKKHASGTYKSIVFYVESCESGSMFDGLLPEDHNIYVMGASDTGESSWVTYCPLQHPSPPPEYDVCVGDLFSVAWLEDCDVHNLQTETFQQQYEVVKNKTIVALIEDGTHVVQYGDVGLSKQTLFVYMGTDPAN
Protocol: (§1) Enzyme-meditated cyclization and ligation reactions were performed in 20 mM PBS buffer (pH 6.5) at 37° C. with 0.5 mM TCEP. The reaction was quenched by adding 20% TFA. The enzyme concentration was determined by the absorbance at 280 nm using Nanodrop. The reactions were monitored by reverse-phase analytical HPLC, and the products were characterized by MALDI-MS or ESI-MS.
(§2) Model peptides (1-6, see Table 51) were used in the kinetic studies. The cyclization reaction was performed in 20 mM PBS buffer (pH 6.5) containing 0.5 mM TCEP, at 37° C. The reaction was monitored by analytical RP-HPLC (5% buffer B-45% buffer B in 20 min). Kinetic constants for these peptides were obtained from the initial reaction rates. To ensure that the measurement of reaction rate was in the range of the initial velocity, the reaction was quenched using 20% TFA, when less than 25% of the substrate has been converted. Each recorded value is an average of measurements in triplicate. All the numbers were input into GraphPad Prism (GraphPad Software, San Diego) to obtain the Michaelis-Menten curve and calculate the kinetic parameters (kcat and Km).
Plant flowers of Clitoria ternatea grown in the Nanyang Technological University Herb Garden were collected. Butelase-1 was extracted using a chromatography method described previously.^5 Purified butelase-1 was obtained and stored at 4° C. or −80° C. in 50 mM sodium phosphate buffer (pH 6.0) containing 1 mM EDTA, 5 mM β-mercaptoethanol, 0.01% Tween 20 and 20% sucrose.

VyPAL2 = test: Kinetics of peptide cyclization by VyPAL2; type: biochemical; settings: for Kcat / Km: cyclization by VyPAL2, 37° C., PBS pH 6.5
VyPAL2, sequence (as listed by the source): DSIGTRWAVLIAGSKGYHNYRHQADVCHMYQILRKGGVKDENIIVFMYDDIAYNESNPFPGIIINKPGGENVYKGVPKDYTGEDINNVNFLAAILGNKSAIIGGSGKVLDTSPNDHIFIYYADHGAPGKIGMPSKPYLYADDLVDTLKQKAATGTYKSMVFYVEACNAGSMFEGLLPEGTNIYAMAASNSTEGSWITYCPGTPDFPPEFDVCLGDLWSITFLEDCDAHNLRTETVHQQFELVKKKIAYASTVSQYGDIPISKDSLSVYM
Protocol: as §1, §2
VyPAL2 was expressed using sf9 insect cells as described previously (Hemu et al. PNAS, 2019, 116, 11737-11746). 100 mL of the viral vector containing VyPAL2 gene was used to infect sf9 cells at cell density of 2.5×10^6 cells/mL. MOI for infection was set between 1-10 for protein expression. The culture was incubated at 27° C. shaker for 3 days (72 hours) at 135 rpm. Protein purification was performed in three steps: Immobilized Metal Affinity Chromatography (IMAC), Ion-Exchange Chromatography (IEX), and Size-Exclusion chromatography (SEC). Pro-VyPAL2 was activated at pH 5 in 50 mM sodium citrate buffer (0.1 M NaCl, 1 mM DTT, 0.5 mM LS) for 2-3 h at 37° C. After activation, the activated enzyme was purified by SEC at pH 6.5 (20 mM PBS, 0.1 M NaCl, 1 mM DTT).

butelase-1 [4] = test: Inhibitory activity assay of AN(Me)12-HV 7 on butelase-1 cyclization of pB1 peptide; type: biochemical, Clitoria ternatea; settings: 200 μM pB1, 0.001 eq butelase-1, pH 6.5, 37° C., 10 min; increasing concentration of peptide 7
Protocol: FIG. 7. Inhibitory activity assay of AN(Me)12-HV 7. (a) RP-HPLC trace for cyclization of pB1 peptide ([…]; SEQ ID NO:13). The cyclization reaction was performed at 37° C. in the present of 200 μM of peptide substrates and 0.001 eq of butelase-1 in 20 mM PBS (pH 6.5) for 10 min. The reactions were monitored by RP-HPLC. The cyclic peptide is labelled as c[pB1] and starred HPLC peak is the potentially inhibitory peptide AN(Me)12-HV 7. […] (b) MALDI profiles of pB1 and AN(Me)12-HV 7 before and after treatment with butelase-1.
as §1

butelase 1 = test: Butelase 1-mediated inter-peptide ligation with acyl acceptor GIRGI; type: biochemical, Clitoria ternatea; settings: 400 uM peptide, 3.2 mM GIRGI, 0.01 eq butelase 1, pH 6.5, room temperature
Protocol: The reaction was conducted using 400 uM of Ac-KYSN(NH2)GL and 3.2 mM of GIRGI (8 eq) in the presence of 0.01 eq butelase 1 in 20 mM PBS buffer (pH 6.5) at room temperature. The ligation product was obtained in >80% yield in 1 h (FIG. 28, lower panel). The fact that Asn(NH2) can be recognized by butelase 1 as a P1 residue for inter-peptide ligation indicates it can also be used to mediate peptide cyclization (FIG. 27).

[5] = the molecule shown is the open-chain precursor, 102-membered ring, butelase-1 (0.01 eq), 20 mM PBS pH 6.5, 0.4 mM

Molecule: H-Gly-Arg-Cys-Thr-Lys-Ser-Ile-Pro-Pro-Ile-Cys-Phe-Pro-Asp-Ile-Val-NH2?
- ring closure, conversion ([1]; the molecule shown is the open-chain precursor, 42-membered ring, butelase-1 (0.01 eq), 20 mM PBS pH 6.5, 0.4 mM): 0%

Molecule: CC[C@H](C)[C@@H]1NC(=O)[C@@H]2CSSC[C@H](NC(=O)[C@H](CC(=O)NO)NC(=O)[C@@H]3CSSC[C@H](NC1=O)C(=O)N[C@@H]([C@@H](C)O)C(=O)N[C@@H]([C@@H](C)CC)C(=O)N[C@@H](CO)C(=O)N[C@@H](Cc1ccc(O)cc1)C(=O)N3)C(=O)N[C@@H](CC(C)C)C(=O)N[C@H]1CSSC[C@H](NC(=O)[C@H](C(C)C)NC(=O)CNC(=O)[C@H](CCCNC(=N)N)NC(=O)[C@H](CCCNC(=N)N)NC1=O)C(=O)N[C@@H](CCCNC(=N)N)C(=O)N2 [Peptide 17] (cyclo(CD(NHOH)CLCRRGVCRCICTISY); disulfide 1-14, 3-12, 5-10 (inferred); ring closure inferred)
- stability in human serum ([2]; after 16 h): remained intact
- Ki (MMP2): 2.8 nM
- better MMP2 binding affinity than Asn-RTD-1 19 (MMP2): 13 fold
- better MMP2 binding affinity than Asp-RTD-1 18 (MMP2): 2.3 fold
- improvement of MMP2 Ki over linear Asn(OH)-APP-IP peptide 9 (MMP2): 8.2 fold
- more potent towards MMP2 than MMP9 (selectivity) (MMP2; MMP2 over MMP9): about 1000 fold

Molecule: H-Gly-Gly-Val-Cys-Pro-Lys-Ile-Leu-Lys-Lys-Cys-Arg-Arg-Asp-Ser-Asp-Cys-Pro-Gly-Ala-Cys-Ile-Cys-Arg-Gly-Asn-Gly-Tyr-Cys-Gly-Ser-Gly-Ser-Asn(OH)-Ile-Val-NH2?
- ring closure, conversion [1, 5]: 95%

Molecule: H-Gly-Gly-Val-Cys-Pro-Lys-Ile-Leu-Lys-Lys-Cys-Arg-Arg-Asp-Ser-Asp-Cys-Pro-Gly-Ala-Cys-Ile-Cys-Arg-Gly-Asn-Gly-Tyr-Cys-Gly-Ser-Gly-Ser-Asp-Ile-Val-NH2?
- ring closure, conversion [1, 5]: 0%

Molecule: ISYGNDALMP-NH2 [Peptide 8, reference compound]
- metabolised at 32 min, 100 μM ([2]; in 32 min, read-out: degradation in human serum): > 50%
- Ki (MMP2): 60 nM

Molecule: AIYRRGRLYRRN(OH)HV (AIYRRGRLYRR[N(OH)]HV-NH2) [Peptide 2]
- catalytic efficiency of butelase-1, fold higher than DHV peptide 3 (butelase-1 [3]): 48 fold
- catalytic efficiency of butelase-1, fold lower than NHV peptide 1 (butelase-1 [3]): ~6 fold
- Kcat (butelase-1 [3]): 3.46 ± 0.27 s⁻¹
- Km (butelase-1 [3]): 98.8 ± 17.8 µM

Molecule: CC[C@H](C)[C@H](N)C(=O)N[C@@H](CO)C(=O)N[C@@H](Cc1ccc(O)cc1)C(=O)NCC(=O)N[C@@H](CC(N)=O)C(=O)N[C@@H](CC(=O)NO)C(=O)N[C@@H](C)C(=O)N[C@@H](CC(C)C)C(=O)N[C@@H](CCSC)C(=O)N1CCC[C@H]1C(N)=O [Peptide 9, ISYGNN(OH)ALMP] (H-ISYGND(NHOH)ALMP-NH2)
- improvement of MMP2 inhibitory activity over APP-IP 8 (MMP2; replacement of Asp by Asn(OH)): 2.6 fold

Molecule: CC[C@H](C)[C@@H]1NC(=O)[C@H](CO)NC(=O)CNC(=O)[C@@H]2CCCN2C(=O)[C@H](CCSC)NC(=O)[C@H](CC(C)C)NC(=O)[C@H](C)NC(=O)[C@H](CC(=O)NO)NC(=O)[C@H](CCC(N)=O)NC(=O)CNC(=O)[C@H](Cc2ccc(O)cc2)NC(=O)[C@H](CO)NC1=O [Peptide 11, cyclo[SISYGQN(OH)ALMPG]] (cyclo(ALMPGSISYGQD(NHOH)))
- IC50 (MMP2; APP-IP-derived peptides, 0.8 nM MMP2, 10 μM substrate, pH 7.5, 37° C., read-out: IC50 towards MMP2): > 100 µM
- Ki (MMP2; APP-IP-derived peptides, Ki=IC50/(1+[S]o/Km), read-out: Ki towards MMP2): > 100000 nM

Molecule: AIYRRGRLYRRNSL [Peptide 4]
- Kcat (VyPAL2): 4.56 ± 0.24 s⁻¹
- Km (VyPAL2): 42.5 ± 8.83 µM

Molecule: AIYRRGRLYRRN(OH)SL (AIYRRGRLYRR[N(OH)]SL-NH2) [Peptide 5]
- catalytic efficiency of VyPAL2, fold higher than DSL peptide 6 (VyPAL2): 28 fold
- catalytic efficiency of VyPAL2, fold lower than NSL peptide 4 (VyPAL2): ~14 fold
- Kcat (VyPAL2): 0.942 ± 0.082 s⁻¹
- Km (VyPAL2): 120 ± 19.2 µM

Molecule: AIYRRGRLYRRDSL [Peptide 6]
- Kcat (VyPAL2): 0.581 ± 0.09 s⁻¹
- Km (VyPAL2): 2070 ± 407 µM

Molecule: AIYRRGRLYRRN(Me) HV [Peptide 7]
- inhibition of butelase-1 cyclization of pB1 peptide (butelase-1 [4]): nor did it inhibit the cyclization; also recorded: didn't affect the cyclization rate of pB1
- recognition by butelase-1 as substrate for cyclization (butelase-1 [3]): not recognized

Molecule: AIYRRGRLYRRNHV [Peptide 1]
- Kcat (butelase-1 [3]): 14.86 ± 0.34 s⁻¹
- Km (butelase-1 [3]): 67.5 ± 2.8 µM

Molecule: H-Gly-Leu-Pro-Val-Cys-Gly-Glu-Thr-Cys-Phe-Gly-Gly-Thr-Cys-Asn-Thr-Pro-Gly-Cys-Ser-Cys-Thr-Trp-Pro-Ile-Cys-Thr-Arg-Asp-Ile-Val-NH2?
- ring closure, conversion ([1]; the molecule shown is the open-chain precursor, 87-membered ring, butelase-1 (0.01 eq), 20 mM PBS pH 6.5, 0.4 mM): 0%

Molecule: AIYRRGRLYRRDHV [Peptide 3]
- Kcat (butelase-1 [3]): 0.454 ± 0.02 s⁻¹
- Km (butelase-1 [3]): 630 ± 19.5 µM

Molecule: cyclo[SYCN(OH)CLCRRGVCRCICTI]
- ring closure, conversion ([1]; 54-membered ring, butelase-1 (0.04 eq), PBS pH 6.5, 0.1 mM): 60%

Molecule: c[FLaRGN(OH)FLaRGN(OH)]
- ring closure, conversion ([1]; 36-membered ring, butelase-1 (0.01 eq), 20 mM PBS pH 6.5, 0.4 mM): 90%

Molecule: Ac-KYSN(NH2)GL (Ac-KYS[N(NH2)]GL-NH2; SMILES CC(=O)N[C@@H](CCCCN)C(=O)N[C@@H](Cc1ccc(O)cc1)C(=O)N[C@@H](CO)C(=O)N[C@@H](CC(=O)NN)C(=O)NCC(=O)N[C@@H](CC(C)C)C(N)=O)
- acyl donor substrate in butelase 1-mediated ligation (butelase 1): good acyl donor substrate
